These results are taken from patent US20060173080A1, “Methods of modulating TNF using bupropion” (The Regents of the University of California, priority 2002, published 2006).

Where two headings read alike, the source gives them in different places.

The test system of test [1] is cultures enriched in astrocytes. Particulars: added to in vitro cultures; cited from earlier work.
Test [2] relates to TNF. Conditions: Goebel et al. 2000; cited from earlier work.
Test [3] relates to CD patients. Conditions: Kast 1998; cited from earlier work.
Test [4] concerns TNF. Particulars: different experimental models; cited from earlier work.
Test [5] concerns BALB/c mice. Nature of the test: LPS-induced shock model: survival and signs of endotoxemia after lethal LPS challenge. In kind it is in vivo. Here is the method:
Male BALB/c mice were injected with 11, 33 or 100 mg/kg of bupropion or with placebo i.p. in saline 1 h before challenge with 600 μg of E. coli LPS (Sigma, St. Louis, Mo.) by i.p. route. Mice were sacrificed 90 min for detection of cytokines in the serum by sandwich ELISA. Values represent the means±SEM of 5 mice per group. * P<0.05.
BALB/c mice were injected intraperitoneally (i.p.) with bupropion or placebo 1 h prior to i.p. injection of LPS (600 ug/mouse).
Male, 6 weeks old BALB/c mice were used in LPS-induced shock experiments. All mice were raised and maintained at the animal facilities at the Goncalo Moniz Research Center-FIOCRUZ, and provided with rodent diet and water ad libitum. Animal numbers in experimental groups were the minimum necessary to permit statistical analysis. All animals were sacrificed under anaesthesia.
In some experiments, groups of mice received i.p. injection of propranolol (1 mg/Kg), SCH23390 (25 μg/kg) and sulpiride (25 mg/Kg) 1 h prior to injection of bupropion. […] To determine serum TNF, IL-1 beta and IL-10 levels, mice were sacrificed 90 min after injection of LPS and bled by axilar vein puncture. Levels of IFN-gamma and nitric oxide were assayed using sera of mice sacrificed 4 h after LPS injection. Platelet and leukocyte cell counts were performed using blood collected with EDTA after 4 h of LPS challenge, using an automated cell counter (ADVIA 60, Bayer).

In test [6] the test system is TNF. Particulars: in vivo LPS-induced model; cited from earlier work.
The test system of test [7] is Crohn's patients with fistulas. Conditions: cited from earlier work.
The subject of test [8] is patients with Crohn's disease. Conditions: cited from earlier work.

Turning to `NCCc1ccc(O)c(O)c1` [dopamine], the “LPS-stimulated TNF production” value in test [1] is listed as “significantly blunted”.
On to `CC(C)NCC(O)c1ccc(O)c(O)c1` (stereo not drawn) [isoproteronol], for which the TNF levels entry in test [2] was “lower TNF levels”. In addition, the “LPS-stimulated TNF production” value in test [1] was “significantly blunted”.
Take `NC[C@H](O)c1ccc(O)c(O)c1` [noradrenaline]: the “LPS-stimulated TNF production” value in test [1] was “significantly blunted”.
On to `NNCCc1ccccc1` [phenelzine], for which, in test [3], the CD remission result was “CD remission”.
Consider `COc1ccc(C2CNC(=O)C2)cc1OC1CCCC1` (stereo not drawn) [rolipram], for which, in test [4], the TNF levels result is “lower TNF levels”.
For `CCN1CCCC1CNC(=O)c1cc(S(N)(=O)=O)ccc1OC` (stereo not drawn) [sulpiride], the “effect of antagonist on bupropion mediated survival / protection” value in test [5] (antagonist i.p. 1 h prior to bupropion (propranolol 1 mg/Kg, SCH23390 25 μg/kg, sulpiride 25 mg/Kg), lethal LPS) is on record as “did not interfere”. In addition, in test [5] (without bupropion, propranolol 1 mg/Kg, SCH23390 25 μg/kg, sulpiride 25 mg/Kg i.p.), the “protection from lethal LPS challenge by the antagonist alone” value is on record as “partial protection”. Besides, the TNF levels entry in test [6] is on record as “lowered TNF levels”.
For “Remicaid: new drug given early FDA approval for Crohn's patients with fistulas”, the “patients with complete remission” value in test [7] (another study) is recorded as 48%. In addition, the “patients in whom half of the fistulas closed” value in test [7] (one study) was 68%.
As for bromocryptine, the TNF levels result in test [6] is “lowered TNF levels”.
In the case of “infliximab: monoclonal antibody acting against TNF-alpha, for moderate to severe Crohn's disease”, in test [8] (four weeks after medication, placebo 4 percent), the patients in remission is given as 33%. The “share of patients with a 50 percent reduction in fistula drainage” value in test [8] (second study, active fistulas, three doses two weeks apart) is “two-thirds”. Besides, in test [8] (second study, active fistulas), the “share of the patients' fistulas closed” value was “over half”.
